Measurements reported in ChEMBL document CHEMBL1201862, “PubChem BioAssay data set” (2004).
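Each compound was tested at five concentrations against cells in 96-well plates for 48 hours. At the GI50, growth is halved.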 The source made the active and inactive calls. Cut-off read from the data, not from the text of the source: active = GI50 up to about 1.1 µM and inactive = higher.

Tests used:
Assay in all cases: inhibition of tumour cell growth, NCI panel, 48 h
[1] = system: U-251
[2] = system: MCF7
[3] = system: TK-10
[4] = system: OVCAR-3
[5] = system: HT-29
[6] = system: RPMI-8226
[7] = system: SF-268
[8] = system: Hs-578T
[9] = system: NCI/ADR-RES
[10] = system: A498
[11] = system: HOP-62
[12] = system: ACHN
[13] = system: Malme-3M
[14] = system: OVCAR-5
[15] = system: COLO 205
[16] = system: CCRF-CEM
[17] = system: NCI-H522
[18] = system: UACC-257
[19] = system: UO-31
[20] = system: SNB-19

Row | Compound | GI50 [1] | GI50 [2] | GI50 [3] | GI50 [4] | GI50 [5] | GI50 [6] | GI50 [7] | GI50 [8] | GI50 [9] | GI50 [10] | GI50 [11] | GI50 [12] | GI50 [13] | GI50 [14] | GI50 [15] | GI50 [16] | GI50 [17] | GI50 [18] | GI50 [19] | GI50 [20]
1 | Cc1c(C(=O)OCc2ccccc2)[n+]([O-])c2cc(F)c(F)cc2[n+]1[O-] | 2.3 µM (inactive) | 2.31 µM (inactive) | 16.3 µM (inactive) | 1.01 µM (active) | 2.01 µM (inactive) | 4.41 µM (inactive) | 1.25 µM (inactive) | 0.306 µM (active) | 3.22 µM (inactive) | 1.42 µM (inactive) | 4.67 µM (inactive) | 1.94 µM (inactive) | 1.99 µM (inactive) | 3.72 µM (inactive) | 3.61 µM (inactive) | 0.944 µM (active) | 2 µM (inactive) | 2.19 µM (inactive) | 1.79 µM (inactive) | 2.08 µM (inactive)
2 | CCCCCCC(N)(CCCCCC)C(=O)Nn1c(C)ccc1C | > 100 µM (inactive) | 14.6 µM (inactive) | > 100 µM (inactive) | > 100 µM (inactive) | 28.4 µM (inactive) | 13.6 µM (inactive) | 16 µM (inactive) | 18.8 µM (inactive) | 16 µM (inactive) | > 100 µM (inactive) | > 100 µM (inactive) | 6.55 µM (inactive) | > 100 µM (inactive) | > 100 µM (inactive) | 57.4 µM (inactive) | > 100 µM (inactive) | 53.8 µM (inactive) | 36.4 µM (inactive) | 25.1 µM (inactive) | > 100 µM (inactive)
3 | O=C(Oc1ccc2c(c1)CN(Cc1ccccc1)CO2)c1ccccc1 | 17.3 µM (inactive) | 16.9 µM (inactive) | 16.2 µM (inactive) | 15.4 µM (inactive) | 18.5 µM (inactive) | 20.6 µM (inactive) | 17.3 µM (inactive) | 23.7 µM (inactive) | 23.4 µM (inactive) | 17.3 µM (inactive) | 18.4 µM (inactive) | 18.8 µM (inactive) | 18.9 µM (inactive) | 18.3 µM (inactive) | 16.9 µM (inactive) | 10.6 µM (inactive) | 7.06 µM (inactive) | 15.1 µM (inactive) | 17.7 µM (inactive) | 18.7 µM (inactive)
4 | CNC1=C/C(=N/C2=CC(=N/C(=C\C#N)C(C)(C)O)/OC2(C)C)OC1(C)C | 7.1 µM (inactive) | 5.82 µM (inactive) | 21.3 µM (inactive) | 32.4 µM (inactive) | 11.4 µM (inactive) | 4.43 µM (inactive) | 4.31 µM (inactive) | 35.1 µM (inactive) | 40.4 µM (inactive) | 30.9 µM (inactive) | 7.96 µM (inactive) | 4.32 µM (inactive) | 25.2 µM (inactive) | 60.4 µM (inactive) | 6.56 µM (inactive) | 3.08 µM (inactive) | 13 µM (inactive) | 43.3 µM (inactive) | 5.77 µM (inactive) | 33 µM (inactive)
5 | CC1(C)C2CCC1C(=O)C(C=O)C2 (stereo not given) | > 100 µM (inactive) | > 100 µM (inactive) | > 100 µM (inactive) | > 100 µM (inactive) | > 100 µM (inactive) | > 100 µM (inactive) | > 100 µM (inactive) | > 100 µM (inactive) | > 100 µM (inactive) | > 100 µM (inactive) | > 100 µM (inactive) | > 100 µM (inactive) | > 100 µM (inactive) | > 100 µM (inactive) | > 100 µM (inactive) | > 100 µM (inactive) | > 100 µM (inactive) | > 100 µM (inactive) | > 100 µM (inactive) | > 100 µM (inactive)
